Assays:
Assay type in all cases: in vivo
[1] = test system: ovariectomized (OVX) mice; assay: Forced swimming test (FST) in ovariectomized mice; conditions: oral once daily 8 weeks, E2 1 μg/kg/day, extract 250 and 500 mg/kg/day, vs vehicle-treated OVX group
Description: (§1) The depressive-like symptoms of the OVX mice were evaluated using FST and TST (Figure 2A,B).
(§2) After a 3-day recovery period, the animals were divided into five groups: (1) sham, (2) ovariectomy (OVX), (3) ovariectomy + 1 μg/kg 17β-estradiol, (OVX + E2), (4) ovariectomy + 250 mg/kg of A. philoxeroides extract (OVX + AP250), and (5) ovariectomy + 500 mg/kg of A. philoxeroides extract (OVX + AP500). The sham and OVX control groups were orally administered distilled water 0.2 mL per mouse once daily for 8 weeks. 17β-Estradiol and A. philoxeroides extract were suspended in distilled water and orally administered 0.2 mL per mouse once daily for 8 weeks. To assess the effects of 17β-estradiol and A. philoxeroides extract in OVX mice, the drugs were administered 1 h before the behavioral tests. At the end of behavioral studies, the mice were anesthetized with pentobarbital sodium (Nembutal®) 60 mg/kg (i.p.). Thereafter, blood sera (1 mL) were collected by cardiac puncture and centrifuged (3000 rpm; 4 °C) for 15 min [53]. 17β-Estradiol and corticosterone levels were evaluated in the serum. […] Hippocampus and frontal cortex were collected for semi-quantitative reverse transcription-polymerase chain reaction (RT-PCR) assay. […]
The procedure was adapted from Vogel et al.. […] During a 6 min period, the total immobility time was recorded for the last 4 min.

[2] = test system: ovariectomized (OVX) mice; assay: Tail suspension test (TST) in ovariectomized mice; conditions: oral once daily 8 weeks, E2 1 μg/kg/day, extract 250 and 500 mg/kg/day, vs vehicle-treated OVX group
Description: as §1, §2
The tail suspension test was used to assess the antidepressant effects of A. philoxeroides extract. […] The animal behavior was video-recorded for 6 min. […]

[3] = test system: ovariectomized (OVX) mice; assay: Serum 17β-estradiol level of OVX mice (electrochemiluminescence immunoassay); conditions: OVX mice + E2 1 μg/kg/day, oral, 8 weeks; mean ± SEM, n = 3–4
Description: (§3) The levels of serum 17β-estradiol were evaluated (after decapitation) by electrochemiluminescence immunoassay. […] The weight and volume of the uterus were determined as an index of estrogen receptors activation.
as §2

uterus of OVX mice = assay: Uterine weight and volume of OVX mice
Description: as §3
After a 3-day recovery period, the animals were divided into five groups: (1) sham, (2) ovariectomy (OVX), (3) ovariectomy + 1 μg/kg 17β-estradiol, (OVX + E2), (4) ovariectomy + 250 mg/kg of A. philoxeroides extract (OVX + AP250), and (5) ovariectomy + 500 mg/kg of A. philoxeroides extract (OVX + AP500). The sham and OVX control groups were orally administered distilled water 0.2 mL per mouse once daily for 8 weeks. 17β-Estradiol and A. philoxeroides extract were suspended in distilled water and orally administered 0.2 mL per mouse once daily for 8 weeks. To assess the effects of 17β-estradiol and A. philoxeroides extract in OVX mice, the drugs were administered 1 h before the behavioral tests. At the end of behavioral studies, the mice were anesthetized with pentobarbital sodium (Nembutal®) 60 mg/kg (i.p.). Thereafter, blood sera (1 mL) were collected by cardiac puncture and centrifuged (3000 rpm; 4 °C) for 15 min [53]. 17β-Estradiol and corticosterone levels were evaluated in the serum. Uteri were removed, trimmed of connective tissue and fat for measuring and weighing. Hippocampus and frontal cortex were collected for semi-quantitative reverse transcription-polymerase chain reaction (RT-PCR) assay. Both serum and all tissues were collected rapidly and kept at −80 °C for all experiments.

[4] = test system: HPA-axis (serum corticosterone); assay: Serum corticosterone level of OVX mice (ELISA); conditions: extract 250 and 500 mg/kg/day, E2 1 µg/kg/day, p < 0.001 vs vehicle-treated OVX group
Description: The serum corticosterone was evaluated to clarify the feedback mechanism in the HPA-axis on the estrogen deprivation in the OVX mice. […] Serum corticosterone level was determined by corticosterone (CORT) ELISA kit (Assaypro LLC. St. Charles, MO, USA) and corticosterone was used as a standard, according to the previously described procedure. The serum of the sample 25 µL was added in 96-well microplates of ELISA kit and immediately added 25 µL of biotinylated corticosterone to each well. The 96-well microplates were gently mixed and incubated for 2 h at room temperature and then washed with 200 µL of wash buffer for five times and added 50 µL of streptavidin-peroxidase conjugate into each well before incubation for 30 minutes. Each well was washed with 200 µL of wash buffer for five times again and then added 50 µL of chromogen substrate and incubated for 20 minutes. The reaction was stopped by adding 50 µL of stop solution. The absorbance was immediately measured at 450 nm.

CREB and BDNF mRNAs = assay: CREB and BDNF mRNA expression in hippocampus and frontal cortex (semi-quantitative RT-PCR); conditions: hippocampus and frontal cortex of OVX mice; extract 250 and 500 mg/kg/day, E2 1 μg/kg/day
Excerpt: After completing the behavioral analysis, mice were decapitated under anesthesia. Mouse cyclic AMP response element binding protein (CREB), brain-derived neurotrophic factor (BDNF), and β-actin mRNAs expression in hippocampus and frontal cortex were semi-quantified by RT-PCR as described previously. Total RNA was extracted from the tissues with TRIzol® (Thermo Fisher Scientific Inc., CA, USA) according to the manufacturer’s instructions. First-strand cDNA was synthesized with oligo (dT) primers and SuperScript III reverse transcriptase (Thermo Fischer Scientific Inc., California, USA). PCR amplification was carried out using gene-specific PCR primer sets as follows: β-actin: 5′-AACGGTCTCACGTCAGTGTA-3′ (sense) and 5′-GTGACAGCATTGCTTCTGTG-3′ (antisense); BDNF: 5′-GACAAGGCAACTTGGCCTAC-3′ (sense) and 5′-CCTGTCACACACGCTCAGCTC-3′ (antisense); and CREB: 5′-GAGGCAGCTTGAACAACAAC-3′ (sense) and 5′-TACCCAGGGAGGAGCAATAC-3′ (antisense). […] The amplified products were visualized, photographed under ultraviolet and semi-quantified by GeneSnap software (GSL Biotech, Chicago, IL, USA) and ImageJ software (National Institutes of Health, Bethesda, MD, USA). The relative mRNA expression (BDNF/β-actin and CREB/β-actin) in each treatment were calculated by comparing with the sham group.

[5] = OVX mice + E2 1 μg/kg/day, oral, 8 weeks, mean ± SEM

In the case of C[C@]12CC[C@@H]3c4ccc(O)cc4CC[C@H]3[C@@H]1CC[C@@H]2O [17β-estradiol], the “Immobility time in FST” value [1] is reported as “significantly shorter immobility time”, the “Immobility time in TST” value [2] is reported as “significantly shorter immobility time” and the “17β-estradiol (serum)” value [3] is reported as 24.81 ± 1.11 pg/mL. The “Uterine Volume” value (uterus of OVX mice; [5]) was 2.305 ± 0.02 ** cm^3/kg, the “Uterine Weight” value (uterus of OVX mice; [5]) was 3.055 ± 0.04 g/kg and the “Effect on uterus weight and volume” value (uterus of OVX mice; OVX mice, extract 250 and 500 mg/kg/day, E2 1 µg/kg/day, vs vehicle-treated OVX) was “statistically significant effects on uterus weight and volume”. For the same molecule, the “Serum corticosterone level (effect on HPA-axis)” value [4] was “decreasing the serum corticosterone level” and the “CREB and BDNF mRNA expression levels” value (CREB and BDNF mRNAs) was “reversible by 17β-estradiol treatment”.

Source: article PMC6225253, “Chemical Constituents and Antidepressant-Like Effects in Ovariectomized Mice of the Ethanol Extract of Alternanthera philoxeroides” (Molecules : A Journal of Synthetic Chemistry and Natural …, 2018)
